Experimental data reported in patent US20130224128A1, “DENTAL CLEANSER COMPOSITION FOR IMPROVING ADHESION TO TEETH” (NANO INTELLIGENT BIOMEDICAL ENGINEERING CO., LTD., priority 2010, published 2013).
Like-named read-outs stand apart in the source and are kept apart here.

Settings: surfactant applied for 2 minutes to plates coated with 100 μg/ml LPS, absorbance 620 nm, FIG. 6
Experimental: To measure the removal of bacterial lipopolysaccharide, a HEK-Blue LPS detection kit (InvivoGen, San Diego, Calif., USA) was used. 24-well plates were coated with 100 μg/ml of an LPS standard (E. coli K12 LPS) and allowed to stand at 4° C. for 8 hours. […] HEK-Blue cells were dispersed in detection media, after which the cells were seeded onto the plates at a density of 4×10^4 cells/well and cultured at 37° C. for 24 hours. The absorbance at a wavelength of 620 nm was measured using a microplate reader (BIO-TEK, Winooski, Vt., USA). The ratio of the remaining LPS standard was calculated using the absorbance of a lipopolysaccharide-free water-coated well as a blank.

Substance | relative ratio of the remaining LPS standard | relative ratio of the remaining LPS standard (listed as octyl phenol ethoxylate)
Sorbitan monooleate [Span 80] | higher in the order of polyoxyethylene (HLB 10)<Tween 20 (HLB 16)<Span 80 (HLB 4) | –
Tween 20 | higher in the order of polyoxyethylene (HLB 10)<Tween 20 (HLB 16)<Span 80 (HLB 4) | –
octyl phenol ethoxylate [Triton X-100] | the ratio of the remaining LPS standard was the lowest | has the best effect on the removal of lipopolysaccharide
